# Data: patent publication US20110166112A1, “METHOD FOR STIMULATING PLATELET PRODUCTION” (Eisai, Inc., priority 2009, published 2011)
# Test system: subjects with chronic ITP
# Experiment: Treatment-emergent bleeding events (WHO Bleeding Scale; Kaplan-Meier time to first bleeding event)
# Assay type: in vivo, human
# Source text: As used herein, the term “bleeding” refers to any bleeding, as measured by the World Health Organization's Bleeding Scale (e.g., Grade 0=no bleeding; Grade 1=petechial bleeding; Grade 2=clinical significant mild blood loss; […]=gross (severe) blood loss, requiring transfusion; Grade 5=debilitating blood loss, retinal or cerebral associated with fatality). In some embodiments, the bleeding may be due to a low platelet count.
# Bleeding Events. During the combined study period, 43 (67.2%) of the 64 subjects reported a treatment-emergent bleeding event (Table 23). Gingival bleeding was the most frequently reported bleeding event, occurring in 7 subjects (10.9%). All were grade 1 (n=6) or grade 2 (n=1) and none were considered to be related to study drug.
# Using Kaplan-Meier methods, the estimated median time to the first bleeding event was 8 weeks (95% CI: 4.7-15.3 weeks) after initiation of E5501 (FIG. 5).
# [1] = Lower ⅓ dose (2.5-<8.85 mg), N=22
# [2] = Middle ⅓ dose (≧8.85-<13.5 mg), N=22
# [3] = Upper ⅓ dose (≧13.5-≦25.7 mg), N=20
structure (smiles),measurement,setting,value
"O=C(Nc1nc(-c2cc(Cl)cs2)c(N2CCN(C3CCCCC3)CC2)s1)c1cnc(N2CCC(C(=O)O)CC2)c(Cl)c1 [E5501, 1-(3-chloro-5-{[4-(4-chlorothiophen-2-yl)-5-(4-cyclohexylpiperazin-1-yl)thiazol-2-yl]carbamoyl}pyridine-2-yl)piperidine-4-carboxylic acid]","Any TE bleeding event, % of subjects","E5501 Total, N=64",(67.2) %
same,"Any TE bleeding event, n of subjects","E5501 Total, N=64",43
same,"TE bleeding event, highest toxicity Grade 1, % of subjects","E5501 Total, N=64",(45.3) %
same,"TE bleeding event, highest toxicity Grade 1, n of subjects","E5501 Total, N=64",29
same,"TE bleeding event, highest toxicity Grade 2, % of subjects","E5501 Total, N=64",(17.2) %
same,"TE bleeding event, highest toxicity Grade 2, n of subjects","E5501 Total, N=64",11
same,"TE bleeding event, highest toxicity Grade 3, % of subjects","E5501 Total, N=64",(4.7) %
same,"TE bleeding event, highest toxicity Grade 3, n of subjects","E5501 Total, N=64",3
same,"TE bleeding event, highest toxicity Grade 4, % of subjects","E5501 Total, N=64",(1.6) %
same,"TE bleeding event, highest toxicity Grade 4, n of subjects","E5501 Total, N=64",1
same,"TE bleeding event, highest toxicity Grade 5, n of subjects","E5501 Total, N=64",0
same,estimated median time to the first bleeding event,"Kaplan-Meier, after initiation of E5501, 95% CI: 4.7-15.3 weeks",8 weeks
same,"Any TE bleeding event, % of subjects",[1],(68.2) %
same,"Any TE bleeding event, n of subjects",[1],15
same,"TE bleeding event, highest toxicity Grade 1, % of subjects",[1],(50.0) %
same,"TE bleeding event, highest toxicity Grade 1, n of subjects",[1],11
same,"TE bleeding event, highest toxicity Grade 2, % of subjects",[1],(9.1) %
same,"TE bleeding event, highest toxicity Grade 2, n of subjects",[1],2
same,"TE bleeding event, highest toxicity Grade 3, % of subjects",[1],(4.5) %
same,"TE bleeding event, highest toxicity Grade 3, n of subjects",[1],1
same,"TE bleeding event, highest toxicity Grade 4, % of subjects",[1],(4.5) %
same,"TE bleeding event, highest toxicity Grade 4, n of subjects",[1],1
same,"TE bleeding event, highest toxicity Grade 5, n of subjects",[1],0
same,"Any TE bleeding event, % of subjects",[2],(63.6) %
same,"Any TE bleeding event, n of subjects",[2],14
same,"TE bleeding event, highest toxicity Grade 1, % of subjects",[2],(40.9) %
same,"TE bleeding event, highest toxicity Grade 1, n of subjects",[2],9
same,"TE bleeding event, highest toxicity Grade 2, % of subjects",[2],(13.6) %
same,"TE bleeding event, highest toxicity Grade 2, n of subjects",[2],3
same,"TE bleeding event, highest toxicity Grade 3, % of subjects",[2],(9.1) %
same,"TE bleeding event, highest toxicity Grade 3, n of subjects",[2],2
same,"TE bleeding event, highest toxicity Grade 4, n of subjects",[2],0
same,"TE bleeding event, highest toxicity Grade 5, n of subjects",[2],0
same,"Any TE bleeding event, % of subjects",[3],70.0%
same,"Any TE bleeding event, n of subjects",[3],14
same,"TE bleeding event, highest toxicity Grade 1, % of subjects",[3],40.0%
same,"TE bleeding event, highest toxicity Grade 1, n of subjects",[3],8
same,"TE bleeding event, highest toxicity Grade 2, % of subjects",[3],30.0%
same,"TE bleeding event, highest toxicity Grade 2, n of subjects",[3],6
same,"TE bleeding event, highest toxicity Grade 3, n of subjects",[3],0
same,"TE bleeding event, highest toxicity Grade 4, n of subjects",[3],0
same,"TE bleeding event, highest toxicity Grade 5, n of subjects",[3],0
same,"subjects with a clinically significant, grade 3 or 4 bleeding event",combined study period,Four
same,subjects reporting a treatment-emergent bleeding event,"combined study period, 64 subjects",67.2%
